In patent publication US5968791A, “Plant lysophosphatidic acid acyltransferases” (Calgene, Inc., priority 1995, dated 1999):

Columns and labels:
[1] = target: T1, coconut medium-chain LPAAT (Cocos nucifera, UniProt Q42670); test: Assay of solubilized coconut LPAAT (S3 preparation) with phospholipid activation; assay type: biochemical; conditions: radioactivity of PA product resolved on TLC, after 30 min assay; S3 reactivated with PLs; acceptor 12:0-LPA
T1 construct: The frozen coconut P2 preparation is thawed and diluted in a volume of P2 Buffer; from tissue; host or cells: immature coconut endosperm, solubilized S3 supernatant of P2 membranes
T1 sequence (Q42670 1-308): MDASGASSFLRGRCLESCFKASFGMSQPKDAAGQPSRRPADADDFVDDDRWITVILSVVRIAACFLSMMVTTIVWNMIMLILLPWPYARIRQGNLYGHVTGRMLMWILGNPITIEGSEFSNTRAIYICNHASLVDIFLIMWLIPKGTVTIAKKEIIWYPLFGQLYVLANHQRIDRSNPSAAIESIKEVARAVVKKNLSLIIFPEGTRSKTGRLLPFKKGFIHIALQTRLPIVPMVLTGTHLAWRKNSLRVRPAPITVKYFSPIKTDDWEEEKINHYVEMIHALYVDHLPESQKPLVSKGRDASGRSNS
Method: After solubilization of LPAAT protein from plant membranes as described below, modification of the above assay conditions is required in order to detect maximum LPAAT activity. This is especially important after the solubilized LPAAT has been chromatographed on at least one column. The important modification to the assay is the addition, at the start of the assay procedure, of 1 μl of a concentrated phospholipid (PL) solution to 20 μl of the LPAAT-containing sample in a glass vial. The high concentrations of CHAPS (at least 1% w/v) and NaCl (typically 0.5M or greater) in the solubilized LPAAT preparation aid in dispersal of the phospholipids. The phospholipid solution is obtained by sonicating crude soybean phospholipids (L-phosphatidylcholine from soybean, "Type IVs" obtained from Sigma Chemical Company, St. Louis) at 50 mg/ml in 0.5% (w/v) CHAPS (3-[(3-cholamidopropyl) -dimethylammonio]-1-propane-sulfonate) until a uniform suspension is obtained.
The remaining assay ingredients (as described above), with the exception of the acyl-CoA substrate, are then added as 219 μl of a mixture. […] Radiolabeled acyl-CoA (10 μl, or an appropriately adjusted volume as indicated above) is added to start the LPAAT-catalyzed reaction and the rest of the assay procedure is completed as described above.
All steps are carried out at 0-4° C. The frozen coconut P2 preparation is thawed and diluted in a volume of P2 Buffer to achieve a protein concentration of 0.94 mg/ml P2 protein. Protein concentration is determined by Coomassie dye staining relative to a bovine serum albumin standard. The P2 membrane suspension is then diluted with an equal volume of Solubilization Buffer (50 mM HEPES-NaOH, pH 7.5, […], 20% (w/v) glycerol, 4.5% (w/v) CHAPS, 100 μM Pefabloc, 1 μM leupeptin, 1 μM Pepstatin A, and 5 mM β-ME), resulting in final concentrations of 1M NaCl, 2.25% (w/v) detergent, and 0.47 mg/ml protein. These component concentrations, and the resulting detergent/protein ratio of 48/1 (w/w), are important for optimal solubilization. The preparation is then incubated on ice for 30 minutes with occasional, gentle stirring, followed by centrifugation at 252,000×g for 2 hours. The resulting supernatant fraction (S3) is filtered through buffer-wetted Miracloth, and may then be stored frozen (-70) with only slight loss of activity. Optimally, it is applied to chromatography columns without an intervening freeze-thaw cycle.
Assay of the coconut medium-chain LPAAT activity after solubilization (S3 preparation) and reactivation with PLs, using different acyl-CoA substrates, provides the following results (Table 3). In all these assays the acceptor substrate is 12:0-LPA.

[2] = target: T2, LPAAT of transformant 5511-5 (Cocos nucifera, UniProt Q42670); test: LPAAT acyl-CoA specificity, P2 preparation of LPAAT-transformed line 5511-5; assay type: biochemical, Rapeseed; conditions: acyl-CoA donor varied at 5 μM, acceptor 12:0-LPA; 30 minute reaction
T2 construct: crude P2 membranes, host LPAAT also present
T2 sequence (Q42670 1-308): T1 sequence (Q42670 1-308)
Method: (§1) Detailed acyl-CoA chain-length specificity analysis of control P2 preparations and LPAAT-transformed line 5511-5 were determined as described above, using the original 30 minute reaction time. The acyl-CoA substrates for this analysis are present in methanol, and thus the assay also had the following modifications. The first solution placed in the assay vial was the volume of each radiolabeled acyl-CoA required for 5 μM final assay concentration. […] After mixing to redissolve the acyl-CoA off the vial wall, the reaction is started by addition of 25 μl of a 5-fold diluted P2 preparation and continued as before. Acyl-CoA substrates used in this analysis were 8:0, 10:0, 12:0, 14:0, 16:0, 18:0, and 18:1. The acceptor substrate in these assays was 12:0-LPA.

[3] = system: control rapeseed LPAAT; test: LPAAT acyl-CoA specificity, control P2 preparation; assay type: biochemical; conditions: acyl-CoA donor varied at 5 μM, acceptor 12:0-LPA; 30 minute reaction
Method: as §1

[4] = system: bay LPAAT; test: LPAAT activity assay, California bay P2 membrane preparation; assay type: biochemical, Umbellularia californica; conditions: P2 membrane preparation; acyl-CoA donor varied, acceptor 12:0-LPA
Method: To assay for LPAAT activity, the sample is incubated with lysophosphatidic acid (LPA) and acyl-coenzyme A (acyl-CoA) substrates in buffered solution. The acyl substituents of the two substrates are chosen to correspond with the specificity of the enzyme being measured. […] The acyl group of one substrate is radioactively labeled in order to detect the product formed. In the examples which follow the acyl substituent of the acyl-CoA substrate is radiolabeled with ^14 C in the carboxyl group. LPAAT activity results in transfer of this acyl group from the acyl-CoA "donor" substrate to the LPA "acceptor" substrate, converting the latter into the product, phosphatidic acid (PA). LPAAT activity is measured as the amount of radioactive product formed in a given assay time. The PA product is radioactive as a result of the transferred radiolabeled acyl group at the central carbon atom of the molecule, and the quantity of PA formed may be determined by measuring radioactivity of the PA fraction. For this measurement, the PA is first separated from the acyl-CoA substrate by solvent partitioning, or by thin-layer chromatography (TLC).
20 μl of the sample to be assayed for LPAAT activity is mixed with 217.5 μl of an assay ingredient mixture in a 4-ml, screw-cap vial. […] The incubation takes place in a water bath at 30° C., for 20-30 minutes.
To stop the assay, 0.25 ml of 1M KCl in 0.2M H3 PO4 is added to the vial. At this point, 40 μl BSA (bovine serum albumin, fraction V) at 1 mg/ml are added, followed by 0.75 ml of a solution of 67 μg/ml unlabeled PA (acting as a "carrier" to facilitate partitioning) in chloroform/methanol (2:1, v/v). The chain lengths of the PA acyl groups are chosen to correspond to those used in the assay substrates. Upon thorough mixing of these components the radiolabeled PA product of the LPAAT reaction partitions into the organic phase and away from the unreacted acyl-CoA and LPA. The vial is centrifuged briefly at low speed to facilitate the separation of organic (lower) and aqueous (upper) phases. The aqueous phase is then removed and discarded. The total radioactivity extracted into the organic phase is determined by liquid scintillation counting; a 100 μl sample of the organic phase is transferred to a 20 ml scintillation vial and allowed to dry, and scintillation fluid (3-5 ml) is added to the vial. The radioactivity of the sample, after subtraction of the "minus-enzyme" or "minus-LPA" radioactivities, is taken as an approximate indication of the amount of PA formed in the LPAAT-catalyzed reaction and therefore of LPAAT activity.
A more accurate estimation of the LPAAT activity may be obtained by separating the PA product from these contaminants by TLC. The remaining organic phase is applied to a silica TLC plate. Ascending chromatography is carried out for 50 minutes, using the solvent mixture chloroform/pyridine/88% formic acid (50:30:7, v/v). After the plate has dried, the distribution of radioactivity is visualized and quantitated using an AMBIS radioanalytic imaging system (AMBIS Systems Inc., San Diego, Calif.). From prior application of standard lipid components the Rf of the PA is known. The radioactivity associated with the PA spot is expressed as a percentage of the total radioactivity of the assay sample loaded on the plate. This ratio provides an indication of the proportion of the scintillation counts which represent the PA product, and may be used to correct the counts to obtain the total PA radioactivity formed in the assay.

SMILES	LPAAT Activity, solubilized coconut LPAAT [1]	Cpm PA Product, 5511-5 [2]	Cpm PA Product, Control [3]	LPAAT Activity from Bay [4]
CCCCCCCC(=O)SCCNC(=O)CCNC(=O)[C@H](O)C(C)(C)COP(=O)(O)OP(=O)(O)OC[C@H]1O[C@@H](n2cnc3c(N)ncnc32)[C@H](O)[C@@H]1OP(=O)(O)O [8:0]	16 cpm	454 Cpm	149 Cpm	13 pmol PA formed/30 min assay
CCCCCCCCCC(=O)SCCNC(=O)CCNC(=O)[C@H](O)C(C)(C)COP(=O)(O)OP(=O)(O)OC[C@H]1O[C@@H](n2cnc3c(N)ncnc32)[C@H](O)[C@@H]1OP(=O)(O)O [10:0]	162 cpm	5648 Cpm	831 Cpm	10 pmol PA formed/30 min assay
CCCCCCCCCCCC(=O)SCCNC(=O)CCNC(=O)[C@H](O)C(C)(C)COP(=O)(O)OP(=O)(O)OC[C@H]1O[C@@H](n2cnc3c(N)ncnc32)[C@H](O)[C@@H]1OP(=O)(O)O [12:0, lauroyl-CoA]	205 cpm	9337 Cpm	1758 Cpm	14 pmol PA formed/30 min assay
CCCCCCCCCCCCCC(=O)SCCNC(=O)CCNC(=O)[C@H](O)C(C)(C)COP(=O)(O)OP(=O)(O)OC[C@H]1O[C@@H](n2cnc3c(N)ncnc32)[C@H](O)[C@@H]1OP(=O)(O)O [14:0]	84 cpm	5080 Cpm	1544 Cpm	5 pmol PA formed/30 min assay

Second part, led by results:

LPAAT Activity, solubilized coconut LPAAT [1]	Cpm PA Product, 5511-5 [2]	SMILES	Cpm PA Product, Control [3]	LPAAT Activity from Bay [4]
18 cpm	4569 Cpm	CCCCCCCCCCCCCCCC(=O)SCCNC(=O)CCNC(=O)[C@H](O)C(C)(C)COP(=O)(O)OP(=O)(O)OC[C@H]1O[C@@H](n2cnc3c(N)ncnc32)[C@H](O)[C@@H]1OP(=O)(O)O [16:0]	3034 Cpm	6 pmol PA formed/30 min assay
30 cpm	8430 Cpm	CCCCCCCC/C=C\CCCCCCCC(=O)SCCNC(=O)CCNC(=O)[C@H](O)C(C)(C)COP(=O)(O)OP(=O)(O)OC[C@H]1O[C@@H](n2cnc3c(N)ncnc32)[C@H](O)[C@@H]1OP(=O)(O)O [18:1, oleoyl-CoA]	7946 Cpm	5 pmol PA formed/30 min assay
